Reference: ChEMBL document CHEMBL3045719, “Insecticidal and Neuroblocking Activities toward American Cockroach (Periplaneta americana L.) of Imidacloprid Metabolites, 5-Hydroxy-, 4,5-Dihydroxy- and 4,5-Dehydroimidacloprid” (J Pestic Sci, 2004)
The source made the active and inactive calls. No cut-off for these calls is given here.

Tests used:
Periplaneta americana [1] = experiment: Insecticidal activity against adult form of Periplaneta americana (American cockroach) assessed as concentration required for neuroblock in excised central nerve cord; assay type: functional
Periplaneta americana [2] = experiment: Insecticidal activity against adult form of Periplaneta americana (American cockroach) assessed as paralysis compound injected into abdominal region measured after 24 hr; assay type: functional
Periplaneta americana [3] = experiment: Insecticidal activity against adult form of Periplaneta americana (American cockroach) assessed as paralysis at 250 nmol injected into abdominal region measured after 1 to 32 hr; assay type: functional, organism-based
Periplaneta americana [4] = experiment: Insecticidal activity against adult form of Periplaneta americana (American cockroach) assessed as paralysis at 8.4 nmol stored at 4 degC for 10 days injected into abdominal region measured after 2 hr; assay type: functional, organism-based
Periplaneta americana [5] = experiment: Insecticidal activity against adult form of Periplaneta americana (American cockroach) assessed as paralysis at 8.4 nmol stored at 4 degC for 10 days injected into abdominal region measured after 1 hr; assay type: functional, organism-based
Periplaneta americana [6] = experiment: Insecticidal activity against adult form of Periplaneta americana (American cockroach) assessed as paralysis at 8.4 nmol injected into abdominal region measured after 24 hr; assay type: functional, organism-based
Periplaneta americana [7] = experiment: Insecticidal activity against adult form of Periplaneta americana (American cockroach) assessed as paralysis at 8.4 nmol injected into abdominal region measured after 13 hr; assay type: functional, organism-based
Periplaneta americana [8] = experiment: Insecticidal activity against adult form of Periplaneta americana (American cockroach) assessed as paralysis at 8.4 nmol injected into abdominal region measured after 8 hr; assay type: functional, organism-based
Periplaneta americana [9] = experiment: Insecticidal activity against adult form of Periplaneta americana (American cockroach) assessed as paralysis at 8.4 nmol injected into abdominal region measured after 3 hr; assay type: functional, organism-based
Periplaneta americana [10] = experiment: Insecticidal activity against adult form of Periplaneta americana (American cockroach) assessed as paralysis at 8.4 nmol injected into abdominal region measured after 2 hr; assay type: functional, organism-based
Periplaneta americana [11] = experiment: Ratio of imidacloprid efficacy to compound efficacy adult form of Periplaneta americana (American cockroach) assessed as concentration required for neuroblock in excised central nerve cord; assay type: functional
[12] = Lipophilicity, log P of the compound; assay type: physicochemical; conditions: octanol/water
Periplaneta americana [13] = experiment: Ratio of imidacloprid MLD to compound MLD for adult form of Periplaneta americana (American cockroach) assessed as paralysis compound injected into abdominal region measured after 24 hr; assay type: functional
Periplaneta americana [14] = experiment: Insecticidal activity against adult form of Periplaneta americana (American cockroach) assessed as paralysis at 8.4 nmol injected into abdominal region measured after 1 hr; assay type: functional, organism-based
Periplaneta americana [15] = experiment: Insecticidal activity against adult form of Periplaneta americana (American cockroach) assessed as paralysis at 8.4 nmol injected into abdominal region measured after 32 hr; assay type: functional, organism-based
Periplaneta americana [16] = experiment: Insecticidal activity against adult form of Periplaneta americana (American cockroach) assessed as paralysis at 8.4 nmol stored at 4 degC for 10 days injected into abdominal region measured after 3 hr; assay type: functional, organism-based
Periplaneta americana [17] = experiment: Insecticidal activity against adult form of Periplaneta americana (American cockroach) assessed as paralysis at 19 nmol injected into abdominal region measured after 32 hr; assay type: functional, organism-based
Periplaneta americana [18] = experiment: Insecticidal activity against adult form of Periplaneta americana (American cockroach) assessed as paralysis at 19 nmol injected into abdominal region measured after 24 hr; assay type: functional, organism-based
Periplaneta americana [19] = experiment: Insecticidal activity against adult form of Periplaneta americana (American cockroach) assessed as paralysis at 19 nmol injected into abdominal region measured after 13 hr; assay type: functional, organism-based
Periplaneta americana [20] = experiment: Insecticidal activity against adult form of Periplaneta americana (American cockroach) assessed as paralysis at 19 nmol injected into abdominal region measured after 8 hr; assay type: functional, organism-based
Periplaneta americana [21] = experiment: Insecticidal activity against adult form of Periplaneta americana (American cockroach) assessed as paralysis at 19 nmol injected into abdominal region measured after 3 hr; assay type: functional, organism-based
Periplaneta americana [22] = experiment: Insecticidal activity against adult form of Periplaneta americana (American cockroach) assessed as paralysis at 19 nmol injected into abdominal region measured after 2 hr; assay type: functional, organism-based
Periplaneta americana [23] = experiment: Insecticidal activity against adult form of Periplaneta americana (American cockroach) assessed as paralysis at 19 nmol injected into abdominal region measured after 1 hr; assay type: functional, organism-based
[24] = target: T1, Nicotinic acetylcholine receptor alpha 5 subunit (Musca domestica) (UniProt A9XFY4); experiment: Binding affinity to nicotinic acetylcholine receptor in Musca domestica (house fly) head membrane relative to imidacloprid
T1 sequence (whole entry): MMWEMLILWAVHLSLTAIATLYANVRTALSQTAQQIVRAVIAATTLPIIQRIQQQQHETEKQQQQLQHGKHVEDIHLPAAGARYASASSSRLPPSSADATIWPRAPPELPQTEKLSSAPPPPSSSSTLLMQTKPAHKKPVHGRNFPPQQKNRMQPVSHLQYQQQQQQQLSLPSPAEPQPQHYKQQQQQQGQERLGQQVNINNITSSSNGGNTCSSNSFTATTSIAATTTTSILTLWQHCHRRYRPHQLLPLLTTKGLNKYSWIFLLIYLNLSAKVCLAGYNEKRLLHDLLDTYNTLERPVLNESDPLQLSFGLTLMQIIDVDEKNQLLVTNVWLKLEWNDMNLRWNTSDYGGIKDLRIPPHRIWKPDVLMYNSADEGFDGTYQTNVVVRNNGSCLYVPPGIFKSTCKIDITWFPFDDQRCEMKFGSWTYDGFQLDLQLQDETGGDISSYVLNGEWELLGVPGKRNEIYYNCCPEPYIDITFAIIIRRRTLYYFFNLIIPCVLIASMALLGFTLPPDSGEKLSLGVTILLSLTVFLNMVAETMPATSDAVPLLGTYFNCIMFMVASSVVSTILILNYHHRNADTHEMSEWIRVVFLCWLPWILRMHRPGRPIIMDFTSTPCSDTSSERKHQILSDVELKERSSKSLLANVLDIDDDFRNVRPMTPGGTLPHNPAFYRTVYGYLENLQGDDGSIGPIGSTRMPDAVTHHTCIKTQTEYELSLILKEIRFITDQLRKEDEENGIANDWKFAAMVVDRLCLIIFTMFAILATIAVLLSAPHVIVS

Myzus persicae = experiment: Ratio of imidacloprid efficacy to compound efficacy for po dosed Myzus persicae (green peach aphid); assay type: functional
Bemisia tabaci = experiment: Ratio of imidacloprid efficacy to compound efficacy for po dosed Bemisia tabaci (sweet potato whitefly); assay type: functional
Aphis gossypii = experiment: Ratio of imidacloprid efficacy to compound efficacy for po dosed Aphis gossypii (cotton aphid); assay type: functional
Periplaneta americana [25] = experiment: Insecticidal activity against adult form of Periplaneta americana (American cockroach) assessed as paralysis at 1.1 nmol injected into abdominal region measured after 24 hr; assay type: functional, organism-based
Periplaneta americana [26] = experiment: Insecticidal activity against adult form of Periplaneta americana (American cockroach) assessed as paralysis at 1.1 nmol injected into abdominal region measured after 13 hr; assay type: functional, organism-based
Periplaneta americana [27] = experiment: Insecticidal activity against adult form of Periplaneta americana (American cockroach) assessed as paralysis at 1.1 nmol injected into abdominal region measured after 3 hr; assay type: functional, organism-based
Periplaneta americana [28] = experiment: Insecticidal activity against adult form of Periplaneta americana (American cockroach) assessed as paralysis at 1.1 nmol injected into abdominal region measured after 8 hr; assay type: functional, organism-based
Periplaneta americana [29] = experiment: Insecticidal activity against adult form of Periplaneta americana (American cockroach) assessed as paralysis at 1.1 nmol injected into abdominal region measured after 2 hr; assay type: functional, organism-based
Periplaneta americana [30] = experiment: Insecticidal activity against adult form of Periplaneta americana (American cockroach) assessed as paralysis at 1.1 nmol injected into abdominal region measured after 1 hr; assay type: functional, organism-based
Periplaneta americana [31] = experiment: Insecticidal activity against adult form of Periplaneta americana (American cockroach) assessed as paralysis at 1.1 nmol injected into abdominal region measured after 32 hr; assay type: functional, organism-based
[32] = Half life in Apis mellifera (honey bee); assay type: ADME, organism-based; conditions: in vivo

O=[N+]([O-])/N=C1\NC(O)C(O)N1Cc1ccc(Cl)nc1 (centres undefined) [4,5-DIHYDROXYIMIDACLOPRID]
Activity (Periplaneta americana [1]): >370 µM
MLD (Periplaneta americana [2]): >250 nmol
Activity (Periplaneta americana [3]): inactive

O=[N+]([O-])/N=C1\NCC(O)N1Cc1ccc(Cl)nc1 (centres undefined) [5-HYDROXYIMIDACLOPRID]
Activity (Periplaneta americana [4]): Active
Activity (Periplaneta americana [5]): Active
Activity (Periplaneta americana [6]): Active
Activity (Periplaneta americana [7]): Active
Activity (Periplaneta americana [8]): Active
Activity (Periplaneta americana [9]): Active
Activity (Periplaneta americana [10]): Active
Activity (Periplaneta americana [1]): 150 µM
MLD (Periplaneta americana [2]): 11 nmol
Ratio (Periplaneta americana [11]): 20
logP [12]: 8
Ratio (Periplaneta americana [13]): 10
Activity (Periplaneta americana [14]): inactive
Activity (Periplaneta americana [15]): inactive
Activity (Periplaneta americana [16]): Active

O=[N+]([O-])Nc1nccn1Cc1ccc(Cl)nc1 [DEHYDROIMIDACLOPRID]
Activity (Periplaneta americana [17]): Active
Activity (Periplaneta americana [18]): Active
Activity (Periplaneta americana [19]): Active
Activity (Periplaneta americana [20]): Active
Activity (Periplaneta americana [21]): Active
Activity (Periplaneta americana [22]): Active
Activity (Periplaneta americana [23]): Active
Activity (Periplaneta americana [1]): 49 µM
MLD (Periplaneta americana [2]): 19 nmol
Ratio [24]: 3
Ratio (Periplaneta americana [11]): 20
Ratio (Myzus persicae): >10
Ratio (Bemisia tabaci): >10
Ratio (Aphis gossypii): >10
logP [12]: 0.45
Ratio (Periplaneta americana [13]): 10

O=[N+]([O-])/N=C1\NCCN1Cc1ccc(Cl)nc1 [IMIDACLOPRID]
Activity (Periplaneta americana [25]): Active
Activity (Periplaneta americana [26]): Active
Activity (Periplaneta americana [27]): Active
Activity (Periplaneta americana [28]): Active
Activity (Periplaneta americana [29]): Active
Activity (Periplaneta americana [30]): Active
Activity (Periplaneta americana [1]): 2.3 µM
MLD (Periplaneta americana [2]): 1.1 nmol
Activity (Periplaneta americana [31]): inactive

O=[N+]([O-])NC1=NCCN1Cc1ccc(Cl)nc1 [IMIDACLOPRID]
half-life [32]: 4.5 h
